Values quoted from earlier work as cited in patent publication US20220031737A1, “PHARMACEUTICAL COMPOSITIONS COMPRISING CHROMIUM AND CARBOHYDRATE BLOCKERS” (GluCare LLC, priority 2016, published 2022).

Legend:
[1] = overweight African-American females, caloric restriction and exercise combined with oral NBC
[2] = Sprague-Dawley rats, gavage, % of control
[3] = 1,000 μg of chromium per day

Compound: niacin-bound chromium [NBC]
- Fat loss and muscle loss compared to control group without NBC supplement [1]: increased fat loss and reduced muscle loss significantly

Compound: O=C[C@H](O)[C@@H](O)[C@@H](O)CO [L-arabinose]
- Glucose elevations above baseline over four hours following rice starch challenge, of control [2]: 85%

Compound: [Cr] [chromium]
- Relief of symptoms of type 2 diabetes [3]: highly effective
